# Assay results published in the OligoGym collection.
# After the bases stand the sugars from the 5' end (letter, count) and the backbone: PS all phosphorothioate, else s phosphorothioate and o phosphodiester by linkage. Methylation of C is not given here. e = 2'-O-(2-methoxyethyl) (MOE); k = constrained ethyl (cEt); d = 2'-deoxy (DNA); m = 2'-O-methyl
# Target: HSD17B13
# Conditions: ASO, HepaRG
Sequence,target mRNA inhibition (1 µM) [%],other results
"CCTCAAATGTCTTGGT (sugars k3 d10 k3, PS)",6,–
"GTGTTCTTGTTGATAT (sugars kkdddddddddkekek, PS)",63,–
"GGCCGCACACTGAAGC (sugars k3 d10 k3, PS)",9,–
"CCTGATTTAGAGAGCG (sugars k3 d10 k3, PS)",42,–
"TAAGATACCCAGGTTG (sugars k3 d10 k3, PS)",39,–
"TTTAAAATAGAGTCGG (sugars kkdddddddddkekek, PS)",43,–
"AGTTATTAGAAGTCAG (sugars kkdddddddddkekek, PS)",42,–
"AAAGTCAGTATCCCCT (sugars k3 d10 k3, PS)",77,target mRNA inhibition (0.02 µM): 7%; target mRNA inhibition (0.078 µM): 21%; target mRNA inhibition (0.313 µM): 40%; target mRNA inhibition (1.25 µM): 79%; target mRNA inhibition (5 µM): 82%
"GATCTTAAGGATCATT (sugars k3 d10 k3, PS)",0,–
"GGGATAAACTGTTCTT (sugars k3 d10 k3, PS)",47,–
"ATGTAATAGCCAGTAC (sugars kkdddddddddkekek, PS)",47,–
"AAGGAGCCAGTTATGA (sugars k3 d10 k3, PS)",57,–
"AGGATACCTGAAAAGC (sugars k3 d10 k3, PS)",81,target mRNA inhibition (0.02 µM): 13%; target mRNA inhibition (0.078 µM): 23%; target mRNA inhibition (0.313 µM): 54%; target mRNA inhibition (1.25 µM): 70%; target mRNA inhibition (5 µM): 88%
"AAGCTTATCGAGTTTA (sugars k3 d10 k3, PS)",26,–
"TATTGATATACGATGG (sugars k3 d10 k3, PS)",16,–
"TACGACTTCCTTCTAA (sugars k3 d10 k3, PS)",67,–
"GAGTCGGATTATTTTT (sugars k3 d10 k3, PS)",44,–
"AGTTATTAGAAGTCAG (sugars k3 d10 k3, PS)",54,–
"TGGAACAATATGGGAT (sugars k3 d10 k3, PS)",46,–
"ACAATACAGGATAGAG (sugars k3 d10 k3, PS)",23,–
"CTTGCAGAAATTCACC (sugars k3 d10 k3, PS)",40,–
"ATATGTCCAGGTTGAG (sugars k3 d9 k3 e1, PS)",71,–
"GTAAACTAAAGTACTT (sugars k3 d10 k3, PS)",0,–
"CTACCTCTAAGTTAGC (sugars k3 d10 k3, PS)",6,–

Sequence,target mRNA inhibition (1 µM) [%],other results
"GTTGACTAATGCAAGA (sugars k3 d10 k3, PS)",59,–
"CCCAAACATGGATGTT (sugars k3 d10 k3, PS)",72,–
"ATGAAGTTAGTATAGT (sugars k3 d10 k3, PS)",55,–
"GGTGAACCCAGTATTC (sugars k3 d10 k3, PS)",7,–
"AAATTACTCCGTTCTG (sugars k3 d10 k3, PS)",28,–
"ACGACTTCATCTGTCT (sugars k3 d10 k3, PS)",8,–
"AGTATGTGAACTCCGT (sugars k3 d10 k3, PS)",81,target mRNA inhibition (0.02 µM): 0%; target mRNA inhibition (0.078 µM): 5%; target mRNA inhibition (0.313 µM): 30%; target mRNA inhibition (1.25 µM): 67%; target mRNA inhibition (5 µM): 86%
"TAGTGTAAGCTGAGAG (sugars k3 d10 k3, PS)",75,target mRNA inhibition (0.02 µM): 0%; target mRNA inhibition (0.078 µM): 0%; target mRNA inhibition (0.313 µM): 2%; target mRNA inhibition (1.25 µM): 48%; target mRNA inhibition (5 µM): 83%
"AGTACAGTTCCTTTTC (sugars k3 d9 k3 e1, PS)",59,–
"TTATTGGTAAGTATTC (sugars k3 d10 k3, PS)",17,–
"AGTTTAGAAGTCAAAC (sugars k3 d10 k3, PS)",23,–
"CTCAATAACTGAGTTA (sugars k3 d10 k3, PS)",4,–
"AGCCAGTACAGTTCCT (sugars k3 d9 k3 e1, PS)",59,–
"TGCTACTTGAACAGTC (sugars k3 d10 k3, PS)",81,target mRNA inhibition (0.02 µM): 3%; target mRNA inhibition (0.078 µM): 22%; target mRNA inhibition (0.313 µM): 49%; target mRNA inhibition (1.25 µM): 78%; target mRNA inhibition (5 µM): 89%
"GTTGATATTCTGTGGC (sugars k3 d1 m1 d8 k3, PS)",68,–
"GCTGGAACAATATGGG (sugars k3 d10 k3, PS)",36,–
"AGTAGAGAGCATAAGT (sugars k3 d10 k3, PS)",52,–
"AATTCATAAGTAGTCT (sugars k3 d10 k3, PS)",28,–
"CTTTGCAGCATTGATT (sugars k3 d10 k3, PS)",47,–
"AAATTAGAGGCCCAGG (sugars k3 d10 k3, PS)",43,–
"GTAATTACTTCTGATG (sugars k3 d10 k3, PS)",41,–
"TAATCTTGAGGCAGGA (sugars k3 d10 k3, PS)",17,–
"GGACTTCAGAGTTATA (sugars k3 d10 k3, PS)",36,–
"TGAATCATGATTGAAT (sugars k3 d10 k3, PS)",38,–

Sequence,target mRNA inhibition (1 µM) [%],other results
"CTAGAATTAAGGGCTA (sugars k3 d10 k3, PS)",42,–
"AGACAATACAGGATAG (sugars k3 d10 k3, PS)",15,–
"AGGCAAAGATCTGGCC (sugars k3 d10 k3, PS)",7,–
"TTGCAGTTATTAGAAG (sugars k3 d9 k3 e1, PS)",10,–
"AAAATAGAGTCGGTCA (sugars k3 d9 k3 e1, PS)",65,–
"GTAGTCTGCCTGCCTA (sugars k3 d10 k3, PS)",68,–
"GTCCATGCAAAAGCAT (sugars k3 d10 k3, PS)",62,–
"GCACCGTTTTGGGCTA (sugars k3 d10 k3, PS)",74,target mRNA inhibition (0.02 µM): 36%; target mRNA inhibition (0.078 µM): 38%; target mRNA inhibition (0.313 µM): 61%; target mRNA inhibition (1.25 µM): 80%; target mRNA inhibition (5 µM): 88%
"GCACCGTTTTGGGCTA (sugars k3 d9 k3 e1, PS)",45,–
"CTTAGTTCATTGTGAT (sugars k3 d10 k3, PS)",69,–
"TGCAGAAATTCACCTT (sugars k3 d10 k3, PS)",54,–
"TGCATCTTAAGATACC (sugars kkdddddddddkekek, PS)",24,–
"TCTTATAAGACTATAA (sugars k3 d10 k3, PS)",17,–
"ATGTATCTTATAAGAC (sugars kkdddddddddkekek, PS)",18,–
"ACCAAACTTCCAGCAG (sugars k3 d9 k3 e1, PS)",36,–
"TGTCATAAAAATCGCT (sugars k3 d10 k3, PS)",57,–
"CCCTAATGTGTTTTCC (sugars k3 d10 k3, PS)",25,–
"TCTAAGTTAGCCCCCA (sugars k3 d10 k3, PS)",36,–
"TCTCCAATACAGGCCA (sugars k3 d10 k3, PS)",21,–
"CAGGTAATTAATCTTG (sugars k3 d10 k3, PS)",54,–
"TACTCTAGGAGATATA (sugars k3 d10 k3, PS)",33,–
"TACCAAACTTGCCCAT (sugars k3 d10 k3, PS)",33,–
